The record followed here is EP2238984A1, “Caspasin inhibitor peptides” (INSTITUT NATIONAL DE LA RECHERCHE AGRONOMIQUE (INRA), priority 2009, dated 2010).

The test concerns LNCaP human prostate cancer cells. Nature of the test: BrdU cell proliferation assay. In kind it is cell-based. The note with it: BrdU incorporation; for cell proliferation: LNCaP cells incubated with peptide, absorbance at 450 nm, at a concentration as lowest as 1 µM (Figure 1). Here is the method:
Peptides of sequences SEQ ID NO: 48 and SEQ ID NO: 49 were used in the experiments. They were resuspended in dimethylsulfoxide (DMSO) to obtain a concentration of about 50 mM. They were then diluted in fetal calf serum (FCS) before being added to culture cells at the indicated concentrations.
FGC clone LNCaP human prostate cancer cells, commercialized by ATCC-LGC (Molsheim, France; ATCC Number: CRL-1740) were used.
The cells were incubated for 48 hours with the caspasin inhibitor peptides at the following concentrations: 0.1, 0.3, 0.9, 3, 10, 20, 30, 60 and 90 µM.
Cell proliferation was then assessed by quantifying the DNA precursor bromo-deoxyuridine (BrdU). This quantification was performed using the 5'-Bromo-2'-deoxy-uridine Labeling and Detection Kit (Roche) according to the manufacturer's instructions.
LNCaP prostatic cells were incubated for 24 hours in a 96-well plastic plate containing 200 µl RPMI 1640 medium complemented with 1.5 g/I sodium carbonate, 4.5 g/I glucose, 10 mM HEPES, 1.0 mM sodium pyruvate, 10% foetal bovine serum (FBS) and antibiotics. Peptides were pre-incubated for 1 h30 in 20 µl of FBS at 37°C, then added to 180 µl of RPMI. Medium from plates was released and the medium containing peptides was added to the cells. The cells were then cultured for another 24 hours. BrdU incorporation was then determined by measuring the absorbance at 450 nm on an ELISA plate reader.
Background: Incorporation of labelled thymidine or its analogues reports DNA synthesis.

With “SEQ ID NO: 48: caspasin inhibitor peptide originating from a caspasin reactive centre loop; sequence only in the sequence listing (ATGIGI)”, the cell proliferation result is listed as “drastic decrease of the cell proliferation”.
As to “SEQ ID NO: 49: caspasin inhibitor peptide originating from a caspasin reactive centre loop; sequence only in the sequence listing (FLMMITNKA)”, the cell proliferation entry is listed as “drastic decrease of the cell proliferation”. Further, where the note is “LNCaP cells, concentrations tested 0.1-90 µM (Figure 1)”, the “concentration of peptide at which a plateau was reached (cell proliferation)” value is on record as 3 µM.
